The test system of data set [1] is cartilage matrix degradation. Kind of data set: IL-1β-induced release of matrix protein glycosaminoglycan (GAG). In kind it is cell-based. The source says:
(§1) In this study, it was observed that CD38 expression is increased in human knee cartilage of both osteoarthritis (OA) and aged donors (FIGS. 1A and 1B), in primary human knee OA chondrocytes (FIG. 1C) and in chondrocytes stimulated with IL-1, a pro-inflammatory cytokine implicated to play an important role in OA pathogenesis (FIG. 1E). […] In addition, NRH prevented IL-1β-induced CD38 expression at both mRNA and protein levels (FIGS. 2D and 2E) and decline of NAD levels and NAD/NADH ratio (FIGS. 2F and 2G). […] It was observed that NRH has higher potency than NR to inhibit IL-1β-induced catabolic responses in chondrocytes, evidenced by that similar efficacy was achieved by NRH used at concentration 10 times less than NR (data not shown).

The next data set relates to CD38. Kind of data set: IL-1β-induced CD38 expression in chondrocytes. It is filed as cell-based, human. As to conditions: mRNA and protein levels.
Text: as §1

The test system of data set [2] is human OA chondrocytes. Description: Cellular NAD, NADH and NAD/NADH ratio in human OA chondrocytes. In kind it is cell-based.
Text: as §1

Another data set relates to chondrocytes. Kind of data set: IL-1β-induced catabolic responses in chondrocytes, NRH versus NR. The note with it: inhibition of IL-1β-induced catabolic responses; data not shown. In kind it is cell-based.
Text: as §1

For the next data set, the system named is post-traumatic OA model. Kind of data set: Post-traumatic OA model (DMM surgery) in mice, oral NRH. It is filed as in vivo. As to the method: Given that NRH is a natural NAD precursor with oral bioavailability and its ability to not only promote NAD^+ biosynthesis, but also prohibit NAD^+ degradation by inhibiting CD38, it was next tested whether oral administration of NRH limits OA development in mice using a post-traumatic OA model. Destabilization of medial meniscus (DMM) surgery was performed on the right knee of mice to cause joint injury and started NRH treatment through gavage 2 week after the surgery. Pain behaviors such as pain sensitivity and spontaneous pain were evaluated by Von Frey and static weight bearing tests, respectively, at baseline and every 2 weeks after the surgery. At 10 weeks after the surgery, mice were sacrificed, and knee OA pathological changes including cartilage degradation, synovial inflammation and osteophyte formation were assessed.

Data set [3] has as its system human OA chondrocytes. Description: IL-1β-induced nitric oxide (NO) generation in human OA chondrocytes. It is filed as cell-based. The note with it: for concentration at which significant inhibition of IL-1β-induced NO release was observed when used alone: chondrocytes, previously demonstrated. As for the experimental part:
The effectiveness of NR on inhibition of IL-1β-induced nitric oxide (NO) generation in human chondrocytes was influenced by the presence or absence of serum (which contains PNP) in the cell culture media. Human OA chondrocytes (donor OA278) were treated with a PNP inhibitor Ulodesine (5 uM) for 2 h and then NR (10 or 100 uM) for 1 h, followed by IL1β (2 ng/ml) for 24 h under serum (10% FCS)-present (FIG. 6A) or serum-free condition (FIG. 6B). The conditioned media was used for measuring generation of nitric oxide (NO), a known contributor of cartilage degradation.
Effectiveness of combination of low-dose of NAD precursors (NR or NRH) with a PNP inhibitor Ulodesine on inhibition of IL-1β-induced nitric oxide (NO) generation in human chondrocytes under the serum-presence condition. Human OA chondrocytes from donor OA277 (FIG. 7A) or OA279 (FIG. 7B) were treated with Ulodesine (5 uM) for 2 h and then NR or NRH at 10 uM for 1 h, followed by IL1p (2 ng/ml) for 24 h under serum-present (10% FCS) condition. The conditioned media was used for measuring NO generation.

For data set [4] the following is noted: cited from earlier work.
For data set [5], the system named is MSU crystal-induced inflammation. Description: MSU crystal-induced inflammation in the gout-like air pouch model in mice. In kind it is in vivo. The note with it: via gavage, 400 mg/kg/day. As to the method: It was observed that blood NAD levels decrease, correlated with increase in CD38 expression in peripheral blood mononuclear cells in gout patients compared to healthy subjects. […] The effect of oral supplementation of NR or NRH (via gavage, 400 mg/kg/day) on MSU crystal-induced inflammation in the gout-like air pouch model in mice was tested (FIG. 8). The development of the air pouch leads to a pouch lining tissue that is morphologically like the synovium in joints, in which injection of sterile-filtered air under the skin on the back of the test animal provides an environment that is used to simulate the effects of diseases such as gout. […] Given the potential of Ulodesine in lowering uric acid and of NR or NRH in limiting MSU crystal-induced inflammation, combination of NR or NRH with Ulodesine, or other PNP inhibitors, presents a novel therapeutic approach for gout.

A further data set has as its system MMP13. Description: IL-1β-induced MMP13 expression at cellular and tissue levels. It is filed as cell-based, human. As to conditions: cellular (mRNA and protein) levels and tissue levels.
Text: as §1

The test system of the next data set is MMP3. Kind of data set: IL-1β-induced MMP3 expression at cellular and tissue levels. In kind it is cell-based, human. As to conditions: cellular (mRNA and protein) levels and tissue levels.
Text: as §1

For data set [6] the following is noted: cited from earlier work. This is another data set of the same source.
The conditions of data set [7]: metabolized by PNP; cited from earlier work.
For another data set, the system named is gout patients. The note with it: each arm: 40, 80 and 120 mg per day; 60 gout patients with baseline SU ≥8 mg/dL; cited from earlier work.
The target of the next data set is PNP (Homo sapiens, UniProt P00491). As to conditions: cited from earlier work.
PNP, sequence (P00491 whole entry): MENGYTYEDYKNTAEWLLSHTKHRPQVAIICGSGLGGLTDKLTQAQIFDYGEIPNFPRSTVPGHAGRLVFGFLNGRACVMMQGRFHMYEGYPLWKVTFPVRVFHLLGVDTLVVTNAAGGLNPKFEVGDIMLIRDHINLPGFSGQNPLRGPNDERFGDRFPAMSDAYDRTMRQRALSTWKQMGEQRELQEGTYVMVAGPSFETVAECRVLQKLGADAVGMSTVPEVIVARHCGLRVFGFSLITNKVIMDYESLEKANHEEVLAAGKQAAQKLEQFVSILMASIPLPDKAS
The mark [8] stands for this setting: human OA chondrocytes stimulated with NRH.
Setting [9] is: NRH by gavage from 2 weeks after DMM surgery, assessed at 10 weeks.
Setting [10] is: at 6, 8 and 10 weeks after the surgery.
The mark [11] stands for this setting: 10 uM alone, serum-present (10% FCS), donors OA277, OA279.

SMILES strings stand for the structures.

With `NC(=O)C1=CN([C@@H]2O[C@H](CO)[C@@H](O)[C@H]2O)C=CC1` [NRH, dihydronicotinamide riboside], the “IL-1β-induced release of glycosaminoglycan (GAG)” value in data set [1] is reported as “significantly inhibited”. Besides, the “IL-1β-induced CD38 expression” value with CD38 was “prevented”. Moreover, in the data set on human OA chondrocytes [2] (IL-1β stimulation), the “IL-1β-induced decline of NAD levels” value was “prevented” and the “IL-1β-induced decline of NAD/NADH ratio” value is recorded as “prevented”. Also, in the data set with human OA chondrocytes [2] (setting [8]), the NAD/NADH ratio result is listed as “dramatically increased”, the “cellular levels of NAD” value was “dramatically increased” and the “cellular levels of NADH” value is on record as “dramatically increased”. In the data set with chondrocytes, the “concentration of NRH relative to NR giving similar efficacy” value is 10 times less. For the same compound, in the data set with post-traumatic OA model (setting [9]), the cartilage damage entry was “significantly reduced”; the “osteophyte size and maturity” value is “significantly reduced”; the synovial inflammation entry is “significantly reduced”. Moreover, in the data set with post-traumatic OA model (setting [10]), the “paw withdraw threshold (Von Frey)” value is listed as “significantly increased” and the weight bearing capacity entry is given as “significantly increased”. Further, the “effect on IL-1β-induced NO release” value in the data set with human OA chondrocytes [3] (setting [11]) was “little effect”. Moreover, the “concentration at which significant inhibition of IL-1β-induced NO release was observed when used alone” value with human OA chondrocytes [3] worked out at 200 µM. The “NRH in circulation after NRH treatment” value in data set [4] (mice) was “detectable”. Also, in [4] (mouse, in vivo), the “NR in circulation after NRH treatment versus after NR administration” value was “much higher levels” and the “stability compared to NR” value was “more stable”. The “MSU crystal-induced infiltrating inflammatory cells” value in data set [5] is “significantly inhibited”. Further, in the data set with MMP13, the “IL-1β-induced expression of MMP13” value is “completely attenuated”. In addition, the “IL-1β-induced expression of MMP3” value in the data set on MMP3 was “completely attenuated”.
`NC(=O)c1ccc[n+]([C@@H]2O[C@H](CO)[C@@H](O)[C@H]2O)c1` [NR, nicotinamide riboside]: the tolerability and safety entry in [6] (chronic oral supplementation, human) is “well-tolerated, safe”. Besides, in data set [6] (chronic oral supplementation), the “human NAD+ metabolism” value is reported as “boosted”. In data set [6] (dietary supplementation, elderly individuals), the “blood pressure and exercise performance” value is “only mild benefits”. The “glucose tolerance and β-cell secretory capacity” value in [6] (nondiabetic men with obesity) is listed as “no significant impact”. Besides, in data set [6] (obese and insulin-resistant men), the skeletal muscle mitochondria result was “no significant impact”. In [7], the “stability in plasma (degradation to NAM)” value was “rapidly degraded”. The “effect on IL-1β-induced NO release” value in the data set on human OA chondrocytes [3] (setting [11]) is “little effect”; in the data set with human OA chondrocytes [3] (NR 10 and 100 uM, serum-free, donor OA278) it was “robust inhibition”; with human OA chondrocytes [3] (NR 10 and 100 uM, serum-present (10% FCS), donor OA278) it was “little effect”. Also, in the data set on human OA chondrocytes [3], the “concentration at which significant inhibition of IL-1β-induced NO release was observed when used alone” value turned out to be 200 µM. For the same compound, the “MSU crystal-induced infiltrating inflammatory cells” value in data set [5] is “significantly inhibited”.
Consider `O=c1[nH]cnc2c(CN3C[C@H](CO)[C@@H](O)C3)c[nH]c12` [Ulodesine], for which the “participants achieving the target SU of less than 6 mg/dL” value with gout patients was “approximately one third”. The “IC50 for PNP” value at PNP is listed as “in the nM concentration range”.

Source of the values: US20250099496A1, “Dihydronicotinamide Riboside (NRH) Therapy for Osteoarthritis and other Conditions” (The Regents of the University of California, priority 2022, published 2025).
